Laboratory results from publication PMC12281475, “Mediator Kinase Inhibitor Selectivity and Activity in Colorectal Cancer” (ACS Chemical Biology, 2025).

Tests used:
[1] = molecular target: T1, CDK1_CycA2 (Homo sapiens, UniProt P06493); test: Radiometric protein kinase assay (33PanQinase), CDK1_CycA2; type: biochemical
T1 construct: purchased Reaction Biology

[2] = molecular target: T2, CDK1_CycB1 (Homo sapiens, UniProt P06493); test: Radiometric protein kinase assay (33PanQinase), CDK1_CycB1; type: biochemical
T2 construct: purchased Reaction Biology

[3] = molecular target: T3, CDK1_CycE1 (Homo sapiens, UniProt P06493); test: Radiometric protein kinase assay (33PanQinase), CDK1_CycE1; type: biochemical
T3 construct: purchased Reaction Biology

[4] = molecular target: CDK10_CycQ (Homo sapiens, UniProt Q15131); test: Radiometric protein kinase assay (33PanQinase), CDK10_CycQ; type: biochemical; conditions: slope of the IC50 fit
[5] = molecular target: CDK11B 357-795_CycK (Homo sapiens, UniProt P21127); test: Radiometric protein kinase assay (33PanQinase), CDK11B 357-795_CycK; type: biochemical; conditions: slope of the IC50 fit
[6] = molecular target: T4, CDK12_CycK (Homo sapiens, UniProt Q9NYV4); test: Radiometric protein kinase assay (33PanQinase), CDK12_CycK; type: biochemical
T4 construct: purchased Reaction Biology

[7] = molecular target: T5, CDK13_CycK (Homo sapiens, UniProt Q14004); test: Radiometric protein kinase assay (33PanQinase), CDK13_CycK; type: biochemical
T5 construct: purchased Reaction Biology

[8] = molecular target: CDK14_CycY (Homo sapiens, UniProt O94921); test: Radiometric protein kinase assay (33PanQinase), CDK14_CycY; type: biochemical; conditions: slope of the IC50 fit
[9] = molecular target: T6, CDK15_CycA2 (Homo sapiens, UniProt Q96Q40); test: Radiometric protein kinase assay (33PanQinase), CDK15_CycA2; type: biochemical
T6 construct: purchased Reaction Biology
T6 sequence (Q96Q40 whole entry): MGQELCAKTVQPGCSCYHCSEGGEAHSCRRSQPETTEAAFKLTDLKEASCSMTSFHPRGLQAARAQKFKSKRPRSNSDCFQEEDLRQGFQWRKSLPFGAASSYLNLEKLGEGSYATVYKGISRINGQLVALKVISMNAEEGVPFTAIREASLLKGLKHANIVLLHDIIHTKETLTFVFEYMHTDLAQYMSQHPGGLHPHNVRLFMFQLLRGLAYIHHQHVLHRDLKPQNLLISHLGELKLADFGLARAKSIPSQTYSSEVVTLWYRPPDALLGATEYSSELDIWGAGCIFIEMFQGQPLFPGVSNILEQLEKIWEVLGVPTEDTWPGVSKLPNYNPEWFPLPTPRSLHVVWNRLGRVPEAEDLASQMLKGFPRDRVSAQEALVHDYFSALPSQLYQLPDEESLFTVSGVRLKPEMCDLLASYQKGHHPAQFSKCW

[10] = molecular target: T7, CDK16_CycY (Homo sapiens, UniProt Q00536); test: Radiometric protein kinase assay (33PanQinase), CDK16_CycY; type: biochemical; conditions: slope of the IC50 fit
T7 construct: purchased Reaction Biology

[11] = molecular target: CDK17_p35NCK (Homo sapiens, UniProt Q00537); test: Radiometric protein kinase assay (33PanQinase), CDK17_p35NCK; type: biochemical; conditions: slope of the IC50 fit
[12] = molecular target: CDK18_CycY (Homo sapiens, UniProt Q07002); test: Radiometric protein kinase assay (33PanQinase), CDK18_CycY; type: biochemical
[13] = molecular target: T8, CDK19_CycC (Homo sapiens, UniProt Q9BWU1); test: Radiometric protein kinase assay (33PanQinase), CDK19_CycC; type: biochemical
T8 construct: purchased Reaction Biology
T8 sequence (Q9BWU1 whole entry): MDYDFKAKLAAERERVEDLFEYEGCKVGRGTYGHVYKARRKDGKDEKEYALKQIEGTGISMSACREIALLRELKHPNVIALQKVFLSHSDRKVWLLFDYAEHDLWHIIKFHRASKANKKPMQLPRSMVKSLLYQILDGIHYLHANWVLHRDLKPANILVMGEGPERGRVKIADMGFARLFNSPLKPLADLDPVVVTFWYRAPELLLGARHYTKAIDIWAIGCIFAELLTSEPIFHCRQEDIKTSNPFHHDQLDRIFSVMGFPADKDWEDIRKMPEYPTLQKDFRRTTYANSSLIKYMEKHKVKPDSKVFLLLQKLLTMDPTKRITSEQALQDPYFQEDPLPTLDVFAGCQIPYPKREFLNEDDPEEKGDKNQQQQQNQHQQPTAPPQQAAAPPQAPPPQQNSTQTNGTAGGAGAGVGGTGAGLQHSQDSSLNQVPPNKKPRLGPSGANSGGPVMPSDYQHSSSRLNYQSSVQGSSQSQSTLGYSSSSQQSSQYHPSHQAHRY
T8 sequence (P24863 whole entry partner): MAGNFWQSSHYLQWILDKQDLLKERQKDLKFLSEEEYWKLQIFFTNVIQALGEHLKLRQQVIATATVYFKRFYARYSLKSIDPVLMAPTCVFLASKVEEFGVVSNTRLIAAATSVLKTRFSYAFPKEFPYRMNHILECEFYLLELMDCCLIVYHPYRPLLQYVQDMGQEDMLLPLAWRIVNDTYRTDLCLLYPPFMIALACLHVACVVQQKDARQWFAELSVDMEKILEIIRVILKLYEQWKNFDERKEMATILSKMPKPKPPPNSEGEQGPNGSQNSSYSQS

[14] = molecular target: T9, CDK2_CycA2 (Homo sapiens, UniProt P24941); test: Radiometric protein kinase assay (33PanQinase), CDK2_CycA2; type: biochemical
T9 construct: purchased Reaction Biology

[15] = molecular target: T10, CDK2_CycD1 (Homo sapiens, UniProt P24941); test: Radiometric protein kinase assay (33PanQinase), CDK2_CycD1; type: biochemical; conditions: slope of the IC50 fit
T10 construct: purchased Reaction Biology

[16] = molecular target: T11, CDK2_CycE1 (Homo sapiens, UniProt P24941); test: Radiometric protein kinase assay (33PanQinase), CDK2_CycE1; type: biochemical
T11 construct: purchased Reaction Biology

[17] = molecular target: CDK20_CycH (Homo sapiens, UniProt Q8IZL9); test: Radiometric protein kinase assay (33PanQinase), CDK20_CycH; type: biochemical
[18] = molecular target: CDK20_CycT1 (Homo sapiens, UniProt Q8IZL9); test: Radiometric protein kinase assay (33PanQinase), CDK20_CycT1; type: biochemical
[19] = molecular target: T12, CDK3_CycC (Homo sapiens, UniProt Q00526); test: Radiometric protein kinase assay (33PanQinase), CDK3_CycC; type: biochemical
T12 construct: purchased Reaction Biology
T12 sequence (Q00526 whole entry): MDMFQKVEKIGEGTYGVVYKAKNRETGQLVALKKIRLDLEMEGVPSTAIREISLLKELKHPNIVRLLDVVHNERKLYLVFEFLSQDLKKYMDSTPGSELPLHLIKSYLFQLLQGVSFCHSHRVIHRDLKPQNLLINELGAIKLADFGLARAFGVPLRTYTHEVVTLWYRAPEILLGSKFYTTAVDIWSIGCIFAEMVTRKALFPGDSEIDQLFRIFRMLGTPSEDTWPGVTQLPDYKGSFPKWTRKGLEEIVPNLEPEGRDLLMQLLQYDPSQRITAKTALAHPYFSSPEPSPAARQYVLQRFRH
T12 sequence (P24863 whole entry partner): as the sequence (P24863 whole entry partner) above

[20] = molecular target: T13, CDK3_CycE1 (Homo sapiens, UniProt Q00526); test: Radiometric protein kinase assay (33PanQinase), CDK3_CycE1; type: biochemical; conditions: slope of the IC50 fit
T13 construct: purchased Reaction Biology

[21] = molecular target: T14, CDK4_CycD1 (Homo sapiens, UniProt P11802); test: Radiometric protein kinase assay (33PanQinase), CDK4_CycD1; type: biochemical; conditions: slope of the IC50 fit
T14 construct: purchased Reaction Biology

[22] = molecular target: T15, CDK4_CycD2 (Homo sapiens, UniProt P11802); test: Radiometric protein kinase assay (33PanQinase), CDK4_CycD2; type: biochemical; conditions: slope of the IC50 fit
T15 construct: purchased Reaction Biology

[23] = molecular target: T16, CDK4_CycD3 (Homo sapiens, UniProt P11802); test: Radiometric protein kinase assay (33PanQinase), CDK4_CycD3; type: biochemical; conditions: slope of the IC50 fit
T16 construct: purchased Reaction Biology

[24] = molecular target: T17, CDK5_p25NCK (Homo sapiens, UniProt Q00535); test: Radiometric protein kinase assay (33PanQinase), CDK5_p25NCK; type: biochemical
T17 construct: purchased Reaction Biology
T17 sequence (Q00535 whole entry): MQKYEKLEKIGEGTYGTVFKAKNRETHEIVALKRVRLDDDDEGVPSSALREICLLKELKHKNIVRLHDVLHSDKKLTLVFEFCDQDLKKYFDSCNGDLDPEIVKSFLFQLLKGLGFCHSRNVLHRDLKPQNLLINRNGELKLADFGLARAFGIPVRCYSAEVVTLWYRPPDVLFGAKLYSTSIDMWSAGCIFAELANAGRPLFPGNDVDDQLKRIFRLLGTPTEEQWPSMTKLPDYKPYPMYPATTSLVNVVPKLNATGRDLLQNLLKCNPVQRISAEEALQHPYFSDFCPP
T17 sequence (Q15078 99-307 partner limits assumed): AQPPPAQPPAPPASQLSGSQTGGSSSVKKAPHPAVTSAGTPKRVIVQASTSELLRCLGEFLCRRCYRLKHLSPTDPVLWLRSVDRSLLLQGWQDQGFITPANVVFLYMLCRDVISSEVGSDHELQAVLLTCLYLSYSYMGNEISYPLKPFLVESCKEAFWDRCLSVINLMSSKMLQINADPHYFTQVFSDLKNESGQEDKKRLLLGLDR

[25] = molecular target: T18, CDK5_p35NCK (Homo sapiens, UniProt Q00535); test: Radiometric protein kinase assay (33PanQinase), CDK5_p35NCK; type: biochemical
T18 construct: purchased Reaction Biology
T18 sequence (Q00535 whole entry): as the sequence (Q00535 whole entry) above
T18 sequence (Q15078 whole entry partner): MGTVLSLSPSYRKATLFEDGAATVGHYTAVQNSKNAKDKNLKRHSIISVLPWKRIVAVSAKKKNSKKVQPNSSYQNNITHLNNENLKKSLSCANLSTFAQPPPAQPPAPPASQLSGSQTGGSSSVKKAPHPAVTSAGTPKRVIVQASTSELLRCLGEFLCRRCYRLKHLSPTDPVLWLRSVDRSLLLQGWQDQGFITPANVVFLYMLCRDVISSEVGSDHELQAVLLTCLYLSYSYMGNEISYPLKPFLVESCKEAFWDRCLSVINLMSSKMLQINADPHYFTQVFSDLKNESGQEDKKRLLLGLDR

[26] = molecular target: T19, CDK6_CycD1 (Homo sapiens, UniProt Q00534); test: Radiometric protein kinase assay (33PanQinase), CDK6_CycD1; type: biochemical; conditions: slope of the IC50 fit
T19 construct: purchased Reaction Biology

[27] = molecular target: T20, CDK6_CycD2 (Homo sapiens, UniProt Q00534); test: Radiometric protein kinase assay (33PanQinase), CDK6_CycD2; type: biochemical; conditions: slope of the IC50 fit
T20 construct: purchased Reaction Biology

[28] = molecular target: T21, CDK6_CycD3 (Homo sapiens, UniProt Q00534); test: Radiometric protein kinase assay (33PanQinase), CDK6_CycD3; type: biochemical; conditions: slope of the IC50 fit
T21 construct: purchased Reaction Biology

[29] = molecular target: T22, CDK7_CycH_MAT1 (Homo sapiens, UniProt P50613); test: Radiometric protein kinase assay (33PanQinase), CDK7_CycH_MAT1; type: biochemical; conditions: slope of the IC50 fit
T22 construct: purchased Reaction Biology

[30] = molecular target: T23, CDK8_CycC (Homo sapiens, UniProt P49336); test: Radiometric protein kinase assay (33PanQinase), CDK8_CycC; type: biochemical
T23 construct: purchased Reaction Biology
T23 sequence (P49336 whole entry): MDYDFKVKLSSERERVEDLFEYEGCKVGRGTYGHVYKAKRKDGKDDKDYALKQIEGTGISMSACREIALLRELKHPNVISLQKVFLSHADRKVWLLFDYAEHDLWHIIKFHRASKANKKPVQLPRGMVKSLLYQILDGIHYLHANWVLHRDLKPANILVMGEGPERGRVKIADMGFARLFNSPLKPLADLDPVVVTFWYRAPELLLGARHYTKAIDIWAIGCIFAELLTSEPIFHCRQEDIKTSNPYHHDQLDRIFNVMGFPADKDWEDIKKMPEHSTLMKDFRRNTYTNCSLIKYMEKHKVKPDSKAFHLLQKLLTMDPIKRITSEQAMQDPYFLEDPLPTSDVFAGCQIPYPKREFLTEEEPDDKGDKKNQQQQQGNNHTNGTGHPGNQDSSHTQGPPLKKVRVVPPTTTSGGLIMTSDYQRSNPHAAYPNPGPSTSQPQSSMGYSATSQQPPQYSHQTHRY
T23 sequence (P24863 whole entry partner): as the sequence (P24863 whole entry partner) above

[31] = molecular target: T24, CDK9_CycK (Homo sapiens, UniProt P50750); test: Radiometric protein kinase assay (33PanQinase), CDK9_CycK; type: biochemical
T24 construct: purchased Reaction Biology
T24 sequence (P50750 whole entry): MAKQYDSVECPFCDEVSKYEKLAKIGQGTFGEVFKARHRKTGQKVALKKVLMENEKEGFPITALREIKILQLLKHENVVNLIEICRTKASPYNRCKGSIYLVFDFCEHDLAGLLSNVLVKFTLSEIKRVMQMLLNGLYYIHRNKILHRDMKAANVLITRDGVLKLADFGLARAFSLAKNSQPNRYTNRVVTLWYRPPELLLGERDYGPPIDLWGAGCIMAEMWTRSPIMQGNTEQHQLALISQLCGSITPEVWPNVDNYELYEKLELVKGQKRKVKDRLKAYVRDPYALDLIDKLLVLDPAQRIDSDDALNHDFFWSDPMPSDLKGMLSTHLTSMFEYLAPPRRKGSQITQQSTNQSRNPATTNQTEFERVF
T24 sequence (O75909 whole entry partner): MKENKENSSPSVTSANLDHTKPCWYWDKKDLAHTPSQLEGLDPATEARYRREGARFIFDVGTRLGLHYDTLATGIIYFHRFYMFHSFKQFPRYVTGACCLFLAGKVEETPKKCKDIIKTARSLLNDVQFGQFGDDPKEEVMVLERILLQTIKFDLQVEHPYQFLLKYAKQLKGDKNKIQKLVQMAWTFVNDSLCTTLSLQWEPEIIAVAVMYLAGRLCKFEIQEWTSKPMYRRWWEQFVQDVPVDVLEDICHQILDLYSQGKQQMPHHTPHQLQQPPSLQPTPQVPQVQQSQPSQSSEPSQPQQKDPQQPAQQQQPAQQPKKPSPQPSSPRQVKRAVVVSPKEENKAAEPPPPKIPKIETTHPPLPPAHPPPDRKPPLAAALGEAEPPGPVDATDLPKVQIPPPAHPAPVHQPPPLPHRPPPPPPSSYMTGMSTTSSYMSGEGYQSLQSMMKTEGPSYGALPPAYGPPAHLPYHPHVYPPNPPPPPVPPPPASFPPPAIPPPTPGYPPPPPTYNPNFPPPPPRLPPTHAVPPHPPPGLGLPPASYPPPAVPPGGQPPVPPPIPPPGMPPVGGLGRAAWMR

[32] = molecular target: T25, CDK9_CycT1 (Homo sapiens, UniProt P50750); test: Radiometric protein kinase assay (33PanQinase), CDK9_CycT1; type: biochemical
T25 construct: purchased Reaction Biology
T25 sequence (P50750 whole entry): as the sequence (P50750 whole entry) above
T25 sequence (O60563 whole entry partner): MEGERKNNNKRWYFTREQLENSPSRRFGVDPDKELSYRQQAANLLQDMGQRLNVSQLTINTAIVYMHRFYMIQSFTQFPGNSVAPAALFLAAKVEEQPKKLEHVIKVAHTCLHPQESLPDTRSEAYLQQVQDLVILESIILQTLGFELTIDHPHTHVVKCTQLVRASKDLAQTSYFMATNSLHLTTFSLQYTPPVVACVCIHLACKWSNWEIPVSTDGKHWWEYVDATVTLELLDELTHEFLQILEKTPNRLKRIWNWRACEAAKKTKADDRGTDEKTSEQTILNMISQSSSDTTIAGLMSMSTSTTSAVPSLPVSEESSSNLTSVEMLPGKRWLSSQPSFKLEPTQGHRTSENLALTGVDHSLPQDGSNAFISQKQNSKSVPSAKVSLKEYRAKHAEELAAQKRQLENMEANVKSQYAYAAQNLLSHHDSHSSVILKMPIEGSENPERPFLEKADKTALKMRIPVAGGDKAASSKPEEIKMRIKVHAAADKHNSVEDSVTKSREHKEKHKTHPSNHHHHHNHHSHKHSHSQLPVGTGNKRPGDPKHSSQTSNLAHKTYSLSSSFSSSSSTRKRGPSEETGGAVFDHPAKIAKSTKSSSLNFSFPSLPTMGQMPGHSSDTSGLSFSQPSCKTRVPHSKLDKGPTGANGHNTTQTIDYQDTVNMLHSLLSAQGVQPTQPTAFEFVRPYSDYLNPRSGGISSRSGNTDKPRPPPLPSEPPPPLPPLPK

[33] = test system: CDK8; parameters: method as in numbers not given; conditions: reporter displacement assay; previously characterized compounds, no method in this paper; ref numbers not given; read-out: IC50 for in vitro CDK8 binding; cited from earlier work
[34] = highest assay concentration 1.00E-05 M, read-out: IC50
[35] = highest assay concentration 1.00E-05 M

Cc1c(Br)c(Br)c2c3c1nc(N1CCNCC1)n3CCC2.Cl [SEL120-34A, reference compound]
IC50 [1, 34]: 7100 nM | Hill Slope ([1]; slope of the IC50 fit): -0.95 | IC50 [2, 35]: 7620 nM | Hill Slope ([2]; slope of the IC50 fit): -0.55 | IC50 [3, 34]: 5000 nM | Hill Slope ([3]; slope of the IC50 fit): -1.01 | Hill Slope [4]: -0.83 | Hill Slope [5]: -0.45 | IC50 [6, 35]: 702 nM | Hill Slope ([6]; slope of the IC50 fit): -0.91 | IC50 [7, 34]: 292 nM | Hill Slope ([7]; slope of the IC50 fit): -0.51 | Hill Slope [8]: -0.83 | IC50 [9, 35]: 7490 nM | Hill Slope ([9]; slope of the IC50 fit): -0.86 | Hill Slope [10]: -0.52 | Hill Slope [11]: -0.56 | IC50 [12, 35]: 7840 nM | Hill Slope ([12]; slope of the IC50 fit): -0.81 | IC50 [13, 34]: 437 nM | Hill Slope ([13]; slope of the IC50 fit): -0.83 | IC50 [14, 34]: 2220 nM | Hill Slope ([14]; slope of the IC50 fit): -1.14 | Hill Slope [15]: -0.7 | IC50 [16, 34]: 2700 nM | Hill Slope ([16]; slope of the IC50 fit): -1.13 | IC50 [17, 35]: 1130 nM | Hill Slope ([17]; slope of the IC50 fit): -0.52 | IC50 [18, 35]: 1120 nM | Hill Slope ([18]; slope of the IC50 fit): -0.7 | IC50 [19, 34]: 4820 nM | Hill Slope ([19]; slope of the IC50 fit): -0.87 | Hill Slope [20]: -0.48 | Hill Slope [21]: -0.69 | Hill Slope [22]: -0.75 | Hill Slope [23]: -0.78 | IC50 [24, 35]: 7390 nM | Hill Slope ([24]; slope of the IC50 fit): -0.75 | IC50 [25, 35]: 4550 nM | Hill Slope ([25]; slope of the IC50 fit): -0.92 | Hill Slope [26]: -0.06 | Hill Slope [27]: -0.78 | Hill Slope [28]: -0.38 | Hill Slope [29]: -0.9 | IC50 [30, 34]: 193 nM | Hill Slope ([30]; slope of the IC50 fit): -0.81 | IC50 [31, 35]: 597 nM | Hill Slope ([31]; slope of the IC50 fit): -1.14 | IC50 [32, 35]: 957 nM | Hill Slope ([32]; slope of the IC50 fit): -1.23

Cc1n[nH]c2ncc(C(=O)N3CCC[C@@H]3c3ccc(Cl)cc3)cc12 [MSC2530819]
IC50 [33]: 590 nM
